Measurements reported in EP4745139A1, “COMPOUND FOR TREATING AND PREVENTING RESPIRATORY SYNCYTIAL VIRUS INFECTION DISEASES” (CSPC Zhongqi Pharmaceutical Technology (Shijiazhuang) Co., …, priority 2023, dated 2025).

Experiments:
[1] = system: RSV; assay: In vivo pharmacodynamic assay: mouse RSV infection model, lung viral load by plaque assay; set-up: species or system BALB/c mice; conditions: QD, lung tissue, Day 5
Protocol: The compound of the present invention was dissolved in a suitable solvent to form a clear solution or suspension for intragastric administration. • Animals: BALB/c mice, 6-weeks old, female. • Establishment of in vivo RSV infection model: Mice were inoculated intranasally with the virus on Day 0, with an inoculation dose of 3.5 × 10^6 p.f.u. per mouse. • Grouping of animals: Animals were divided into a vehicle control group and an administration group, with 5 animals in each group.
Administration mode and dosage: The compound of the present invention was administered intragastrically at 100 mg/kg or 50 mg/kg, or the vehicle used for the compound of the present invention was administered intragastrically. The administration volume was 10 mL/kg.
Experimental procedure: Mice were inoculated intranasally with the virus on Day 0 at an inoculation dose of 3.5 × 10^6 p.f.u. per mouse. Mice were continuously treated with the compound of the present invention from Day 0 to Day 4 for 5 days at a dose of 50 mg/kg, once daily, via intragastric administration, with an administration volume of 10 mL/kg; the first administration was conducted 1 hour before virus inoculation. Alternatively, mice were treated once with the compound of the present invention on Day 0 at a dose of 100 mg/kg, via intragastric administration, with an administration volume of 10 mL/kg; the first administration was conducted 1 hour before virus inoculation. On Day 5, mice were euthanized, and lung tissue samples were collected. Animals were observed daily from Day 0 to Day 5, and the body weight, health status, and survival status were recorded.
Sample processing: After lungs were collected, they were quickly frozen in the HBSS* solution at a 10-fold weight-to-volume ratio (w:v (g:mL) = 1:10), and stored in a -80°C refrigerator for plaque assay to detect viral load.
Sample detection: Viral load in lung tissues was detected by plaque assay. […]

[2] = system: RSV strain A2; assay: Antiviral detection test against RSV strain A2 based on ELISA method (Hep-2 cells); assay type: cell-based, Respiratory Syncytial Virus; conditions: RSV A2 virus strain, Hep-2 cells, ELISA OD450
Protocol: Test Example 1: Antiviral detection test of small molecules against RSV strain A2 based on ELISA method
• Source of cell line: Nanjing Kebai Biotechnology Co., Ltd. • Cell type: human laryngeal carcinoma epithelial cells Hep-2
• 96-well culture plate (Cat.No. 3610, Corning Costar); • Fetal bovine serum (Cat.No. 10099-141, GIBCO); • DMEM medium (Cat.No. 11995500BT, GIBCO); • Envision 2104 microplate reader.
• 1. Day 1: The Hep-2 cells were seeded into a 96-well plate at a density of 1×10^4 cells/well; • 2. Day 2: • A. Compound dilution: The compound in the first well was diluted to 9 µM, and 3-fold gradient dilution was performed, with a total of 10 gradients; • B. The Hep-2 cell plate prepared on Day 1 was taken out from the incubator, the supernatant was discarded, and 100 PFU/well/50 µL of the RSV A2 virus was added to each well. The plate was stood at 37°C in a 5% CO2 incubator for 2 hours, the supernatant was aspirated and discarded, and then 100 µL of the gradient-diluted compound or DMEM maintenance medium containing 2% FBS was added to each well; • 3. Day 5: • A. Add fixative: The gradient-diluted compound or medium was discarded from the wells, and 100 µL/well of fixative (4% paraformaldehyde) was added. The plate was stood at room temperature for 10 minutes, and then was washed once with 250 µL PBS; • B. 100 µL/well of a blocking solution was added, and the plate was incubated at 37°C in a 5% CO2 incubator for 30 minutes; • C. After incubation, the detection antibody (Anti RSV Fpro) was added at 0.3 µg/50 µL/well (6 µg/mL), and the plate was incubated at 37°C in a 5% CO2 incubator for 1 hour; • D. After incubation, the HRP secondary antibody was added (diluted 10,000-fold with 0.2% BSA), and the plate was incubated at 37°C in a 5% CO2 incubator for 1 hour; • E. After incubation, the wells were washed for 4 times with PBST, 250 µL/well, each washing was allowed to stand for 5 minutes, and the liquid in the wells was shaken off after completion of the washing; • F. 100 µL/well of a development solution was added, the plate was incubated at room temperature in the dark for 20 minutes, and 50 µL/well of a reaction termination solution was added. The plate was tapped gently to mix the solutions, and the absorbance at 450 nm was measured using the microplate reader. • 4. Data analysis • Inhibition rate of the compound against the virus = 100% - (SC - CC)/(VC - CC) × 100% • SC: OD450 value of the sample (cells + test compound + virus) • CC: OD450 value of the normal growing cell control (cells) • VC: OD450 value of the virus growth control (cells + virus)
The software Graphpad Prism 6 was used, and the calculation formula XY-analysis/Nonlinear regression (curve fit)/Dose response-Inhibition/log (inhibition) vs. response-Variable slope (four parameters) was adopted to fit the IC50 curve and calculate the IC50 value.

[3] = Pharmacokinetic experiment in mice after intragastric administration (plasma and lung tissue, LC/MS/MS); assay type: in vivo; conditions: ICR, mouse, intragastric administration at 20 mg/kg
Protocol: The compounds of the present invention for intragastric administration were dissolved in a suitable solvent to form a clear solution or suspension.
Administration mode and dosage: The compounds of the present invention were administered intragastrically at 10 mg/kg or 20 mg/kg.
Number of animals: 3 ICR mice per group for intragastric administration.
Sample collection: For the intragastric administration group, 100 µL of blood was collected (using pre-heparinized 100 µL Capillary Blood Collection Tubes) from the orbital vein of mice at 0.25 h, 0.5 h, 1 h, 2 h, 4 h, and 6 h after administration and placed in heparin sodium anticoagulant tubes. Mice plasma samples were obtained by centrifugation at 3000 g for 10 minutes within 2 hours. For the intragastric administration group, clean blood was collected at 6-hour time point and then lung tissues were collected.
Sample treatment: Plasma and lung tissue homogenates were subjected to protein precipitation with methanol at a certain ratio, and the supernatant was taken and diluted with 50% methanol-water at a certain ratio for sample loading.
Sample detection: The drug concentration in plasma was detected by the LC/MS/MS method, and the drug-time curve was plotted. Pharmacokinetic parameters (such as T1/2(h)/AUC0-t) were calculated by non-compartmental model statistical moments to describe the pharmacokinetic behavior of the compounds in mice after administration.
Data processing: Pharmacokinetic parameters were calculated by WinNonlin.

[4] = biological target: human potassium ion channel (hERG) (Homo sapiens, UniProt Q12809)
human potassium ion channel (hERG), sequence (Q12809 whole entry): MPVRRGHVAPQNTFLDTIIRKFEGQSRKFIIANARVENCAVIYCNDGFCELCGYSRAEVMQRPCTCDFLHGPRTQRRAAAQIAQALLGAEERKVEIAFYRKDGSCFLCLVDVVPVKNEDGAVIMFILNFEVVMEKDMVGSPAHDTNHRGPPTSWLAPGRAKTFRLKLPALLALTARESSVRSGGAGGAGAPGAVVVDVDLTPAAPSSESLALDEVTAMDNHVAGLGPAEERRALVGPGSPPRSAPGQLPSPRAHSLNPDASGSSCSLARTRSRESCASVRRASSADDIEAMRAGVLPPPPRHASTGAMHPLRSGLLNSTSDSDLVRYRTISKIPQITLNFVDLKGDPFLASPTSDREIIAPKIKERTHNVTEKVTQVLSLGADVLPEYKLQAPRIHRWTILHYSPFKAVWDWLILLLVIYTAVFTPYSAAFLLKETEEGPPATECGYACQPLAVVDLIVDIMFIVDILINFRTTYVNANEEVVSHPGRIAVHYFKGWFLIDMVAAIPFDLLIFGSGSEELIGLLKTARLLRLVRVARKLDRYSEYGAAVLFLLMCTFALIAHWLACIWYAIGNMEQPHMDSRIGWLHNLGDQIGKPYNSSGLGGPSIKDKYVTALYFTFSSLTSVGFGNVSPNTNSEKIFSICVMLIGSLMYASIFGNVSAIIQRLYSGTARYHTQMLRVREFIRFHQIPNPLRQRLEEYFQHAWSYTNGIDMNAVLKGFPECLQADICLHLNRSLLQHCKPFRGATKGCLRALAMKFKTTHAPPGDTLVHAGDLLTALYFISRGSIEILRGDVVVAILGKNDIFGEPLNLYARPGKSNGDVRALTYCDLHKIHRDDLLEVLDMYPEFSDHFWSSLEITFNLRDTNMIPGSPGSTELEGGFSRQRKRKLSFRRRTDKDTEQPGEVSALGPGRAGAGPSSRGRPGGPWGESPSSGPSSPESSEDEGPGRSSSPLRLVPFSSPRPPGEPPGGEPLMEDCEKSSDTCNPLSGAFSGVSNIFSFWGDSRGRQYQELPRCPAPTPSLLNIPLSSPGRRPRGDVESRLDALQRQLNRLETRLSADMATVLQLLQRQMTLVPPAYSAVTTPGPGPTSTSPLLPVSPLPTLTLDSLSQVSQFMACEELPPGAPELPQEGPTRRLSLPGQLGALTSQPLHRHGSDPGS
Protocol: Experimental equipment: Electrophysiological detection was performed using the fully automated patch clamp QPatch 48 X (Sophion) device.
Experimental procedure: The prepared cells were placed in the centrifuge chambers of the QPatch workbench, the cells were washed by the centrifugation/suspension method for multiple times to replace the cell culture medium with an extracellular solution. One MTP-96 plate was taken out and placed at the MTP source position. The QPlate chip was taken out and then the QPlate was placed at the QPlate source position. The robotic arm scanned the MTP-96 plate and the barcodes of the QPlate chip, and grabbed them to the measurement station. Intracellular and extracellular solutions were aspirated from the liquid pool and added to the intracellular solution pool and the cell and test substance pool of the QPlate chip, respectively. At the measurement station, all measurement sites on the QPlate underwent initial quality control. […] The current detected in each cell in the extracellular solution without the compound was used as its own control group, and the detection was independently repeated on two cells. […]
Data processing: The IC50 values were calculated using GraphPad Prism software.

Q: Which “log (RSV Viral Load) Mean” value ([1]; 50 mpk, 5 days administration, value is the lower limit of detection for viral load) does the source give for `Cc1ccc2nc(N3CCS(=O)(=NC4CC4)c4ccccc4C3)nc(N3CC[C@H](N)C3)c2c1` (stereo partly shown) [Example 4-11] here?
A: 2.30°

Q: What about the “log (RSV Viral Load) Mean” value ([1]; 100 mpk, administration once) of the same compound?
A: 2.48

Q: What about the IC50 ([2]; human respiratory syncytial virus) of the same compound?
A: < 10 nM

Q: What about the concentration at 6 h ([3]; lung, oral, read-out: Lung tissue drug concentration at 6 h) of the same compound?
A: 22700 ng/g

Q: And the half-life ([3]; plasma, po)?
A: 6.91 h

Q: With `Cc1ccc2nc(N3CCS(=O)(=NCC4CCO4)c4ccccc4C3)nc(N3CC[C@H](N)C3)c2c1` (stereo partly shown) [Example 4-61] as the compound, how does the IC50 [2] read?
A: < 10 nM

Q: What about the “IC50 of the Compound of the present invention /AK0529 IC50” value [4] of the same compound?
A: > 1
